Data published in PubChem BioAssay AID1919001 (Molecular Pharmacology Branch, DTP, NCI, 2023).
“And” between values parts separate entries of the source, which are not always exact repeats. Identical values can stand only once.

System: 699152-130-R-J1-PDC complex spheroid growth
Experiment: Anticancer human tumor 699152-130-R-J1-PDC patient-derived pancreatic carcinoma cell line growth inhibition [AhR]
Conditions: for viability, T/C: stronger effect = lower value
Procedure, shortened: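 Agents were dosed in half-log steps down from roughly clinical Cmax, or from 10 microM where Cmax was unknown, alone and with AhR antagonists. Read-out: percent test/control growth of tumor spheroids containing HUVEC and MSC stromal cells.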

[1] = curve of first compound, second compound 0.1 µM
[2] = curve of first compound, second compound 0.316 µM
[3] = curve of first compound, second compound 1 µM
[4] = curve of first compound, second compound 3.16 µM
[5] = curve of first compound, second compound 10 µM
[6] = second compound 0.1 µM, first compound 0.0316 µM
[7] = second compound 0.1 µM, first compound 0.1 µM
[8] = second compound 0.1 µM, first compound 0.316 µM
[9] = second compound 0.1 µM, first compound 1 µM
[10] = second compound 0.1 µM, first compound 3.16 µM
[11] = second compound 0.1 µM, first compound 10 µM
[12] = second compound 0.316 µM, first compound 0.0316 µM
[13] = second compound 0.316 µM, first compound 0.1 µM
[14] = second compound 0.316 µM, first compound 0.316 µM
[15] = second compound 0.316 µM, first compound 1 µM
[16] = second compound 0.316 µM, first compound 3.16 µM
[17] = second compound 0.316 µM, first compound 10 µM
[18] = second compound 1 µM, first compound 0.0316 µM
[19] = second compound 1 µM, first compound 0.1 µM
[20] = second compound 1 µM, first compound 0.316 µM
[21] = second compound 1 µM, first compound 1 µM
[22] = second compound 1 µM, first compound 3.16 µM
[23] = second compound 1 µM, first compound 10 µM
[24] = second compound 3.16 µM, first compound 0.0316 µM
[25] = second compound 3.16 µM, first compound 0.1 µM
[26] = second compound 3.16 µM, first compound 0.316 µM
[27] = second compound 3.16 µM, first compound 1 µM
[28] = second compound 3.16 µM, first compound 3.16 µM
[29] = second compound 3.16 µM, first compound 10 µM
[30] = second compound 10 µM, first compound 0.0316 µM
[31] = second compound 10 µM, first compound 0.1 µM
[32] = second compound 10 µM, first compound 0.316 µM
[33] = second compound 10 µM, first compound 1 µM
[34] = second compound 10 µM, first compound 3.16 µM
[35] = second compound 10 µM, first compound 10 µM
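Note: compound exposure lasted 7 days after spheroids had grown for 3 days.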

SMILES: CC1COCCN1c1cc(C2(S(C)(=N)=O)CC2)nc(-c2ccnc3[nH]ccc23)n1 (configuration not stated) + CC(CO)NC(=O)c1cc(-c2ccc(Cl)cc2)nn(-c2cnn(C)c2)c1=O
- IC50 [1]: > 10 µM
- IC50 [2]: > 10 µM
- IC50 [3]: > 10 µM
- IC50 [4]: > 10 µM
- IC50 [5]: > 10 µM
- viability, T/C [6]: 87.9%
- viability, T/C [7]: 95.5%
- viability, T/C [8]: 88.7%
- viability, T/C [9]: 94.5%
- viability, T/C [10]: 79.2%
- viability, T/C [11]: 74.6%
- viability, T/C [12]: 108%
- viability, T/C [13]: 94.2%
- viability, T/C [14]: 101%
- viability, T/C [15]: 85.8%
- viability, T/C [16]: 85.5%
- viability, T/C [17]: 78.5%
- viability, T/C [18]: 98.6%
- viability, T/C [19]: 101%
- viability, T/C [20]: 94.3%
- viability, T/C [21]: 87.9%
- viability, T/C [22]: 84%
- viability, T/C [23]: 68%
- viability, T/C [24]: 80.4%
- viability, T/C [25]: 112%
- viability, T/C [26]: 88.5%
- viability, T/C [27]: 86.4%
- viability, T/C [28]: 73.4%
- viability, T/C [29]: 62.8%
- viability, T/C [30]: 78.5%
- viability, T/C [31]: 82.2%
- viability, T/C [32]: 91.3%
- viability, T/C [33]: 76.4%
- viability, T/C [34]: 72.5%
- viability, T/C [35]: 68.2%

SMILES: COc1cc(C2c3cc4c(cc3C(OC3OC5COC(C)OC5C(O)C3O)C3COC(=O)C23)OCO4)cc(OC)c1O (configuration not stated) + Cc1ccccc1N=Nc1ccc(NC(=O)c2ccnn2C)c(C)c1
- IC50 [1]: > 10 µM
- IC50 [2]: 4.1 µM
- IC50 [3]: > 10 µM
- IC50 [4]: 7.2 µM
- IC50 [5]: > 10 µM
- viability, T/C [6]: 96.8%
- viability, T/C [7]: 117%
- viability, T/C [8]: 74.5%
- viability, T/C [9]: 62.5%
- viability, T/C [10]: 48.2%
- viability, T/C [11]: 48.2%
- viability, T/C [12]: 95.9%
- viability, T/C [13]: 88.8%
- viability, T/C [14]: 66.2%
- viability, T/C [15]: 62.1%
- viability, T/C [16]: 53.6%
- viability, T/C [17]: 43.4%
- viability, T/C [18]: 104%
- viability, T/C [19]: 106%
- viability, T/C [20]: 81%
- viability, T/C [21]: 62.1%
- viability, T/C [22]: 60.6%
- viability, T/C [23]: 50.5%
- viability, T/C [24]: 108%
- viability, T/C [25]: 89.4%
- viability, T/C [26]: 65.4%
- viability, T/C [27]: 62.5%
- viability, T/C [28]: 54.4%
- viability, T/C [29]: 47.3%
- viability, T/C [30]: 106%
- viability, T/C [31]: 88.7%
- viability, T/C [32]: 55%
- viability, T/C [33]: 65.1%
- viability, T/C [34]: 65.1%
- viability, T/C [35]: 57.1%

SMILES: Nc1ccccc1NC(=O)c1ccc(CNC(=O)OCc2cccnc2)cc1 + CC(CO)NC(=O)c1cc(-c2ccc(Cl)cc2)nn(-c2cnn(C)c2)c1=O
- IC50 [1]: 8.23 µM
- IC50 [2]: 6.81 µM
- IC50 [3]: 7.78 µM
- IC50 [4]: 7.59 µM
- IC50 [5]: 6.07 µM
- viability, T/C [6]: 98.3%
- viability, T/C [7]: 99.1%
- viability, T/C [8]: 99.3%
- viability, T/C [9]: 99.2%
- viability, T/C [10]: 72.6%
- viability, T/C [11]: 45.4%
- viability, T/C [12]: 97.3%
- viability, T/C [13]: 110%
- viability, T/C [14]: 107%
- viability, T/C [15]: 91.3%
- viability, T/C [16]: 78%
- viability, T/C [17]: 36.5%
- viability, T/C [18]: 97.7%
- viability, T/C [19]: 91.4%
- viability, T/C [20]: 98.4%
- viability, T/C [21]: 92.9%
- viability, T/C [22]: 71%
- viability, T/C [23]: 44.1%
- viability, T/C [24]: 90.2%
- viability, T/C [25]: 84.7%
- viability, T/C [26]: 97.2%
- viability, T/C [27]: 82.2%
- viability, T/C [28]: 74.1%
- viability, T/C [29]: 42.4%
- viability, T/C [30]: 96%
- viability, T/C [31]: 88%
- viability, T/C [32]: 86.1%
- viability, T/C [33]: 83.7%
- viability, T/C [34]: 70.8%
- viability, T/C [35]: 34.4%

SMILES: Nc1ncn(C2CC(O)C(CO)S2)c(=O)n1 (configuration not stated) + Cc1cncc(-c2nc(NCCc3c[nH]c4ccccc34)c3ncn(C(C)C)c3n2)c1
- IC50 [1]: > 0.3 µM
- IC50 [2]: > 0.3 µM
- IC50 [3]: > 0.3 µM
- IC50 [4]: > 0.3 µM
- IC50 [5]: < 0.000949 µM
- viability, T/C (second compound 0.1 µM, first compound 0.000949 µM): 105%
- viability, T/C (second compound 0.1 µM, first compound 0.003 µM): 93.8%
- viability, T/C (second compound 0.1 µM, first compound 0.00949 µM): 99.9%
- viability, T/C (second compound 0.1 µM, first compound 0.03 µM): 99.5%
- viability, T/C (second compound 0.1 µM, first compound 0.0949 µM): 90.8%
- viability, T/C (second compound 0.1 µM, first compound 0.3 µM): 91.4%
- viability, T/C (second compound 0.316 µM, first compound 0.000949 µM): 112%
- viability, T/C (second compound 0.316 µM, first compound 0.003 µM): 95.9%
- viability, T/C (second compound 0.316 µM, first compound 0.00949 µM): 97%
- viability, T/C (second compound 0.316 µM, first compound 0.03 µM): 103%
- viability, T/C (second compound 0.316 µM, first compound 0.0949 µM): 101%
- viability, T/C (second compound 0.316 µM, first compound 0.3 µM): 107%
- viability, T/C (second compound 1 µM, first compound 0.000949 µM): 126%
- viability, T/C (second compound 1 µM, first compound 0.003 µM): 110%
- viability, T/C (second compound 1 µM, first compound 0.00949 µM): 106%
- viability, T/C (second compound 1 µM, first compound 0.03 µM): 110%
- viability, T/C (second compound 1 µM, first compound 0.0949 µM): 113%
- viability, T/C (second compound 1 µM, first compound 0.3 µM): 111%
- viability, T/C (second compound 3.16 µM, first compound 0.000949 µM): 91.6%
- viability, T/C (second compound 3.16 µM, first compound 0.003 µM): 88.8%
- viability, T/C (second compound 3.16 µM, first compound 0.00949 µM): 95.1%
- viability, T/C (second compound 3.16 µM, first compound 0.03 µM): 94.6%
- viability, T/C (second compound 3.16 µM, first compound 0.0949 µM): 107%
- viability, T/C (second compound 3.16 µM, first compound 0.3 µM): 104%
- viability, T/C (second compound 10 µM, first compound 0.000949 µM): 23.9%
- viability, T/C (second compound 10 µM, first compound 0.003 µM): 21%
- viability, T/C (second compound 10 µM, first compound 0.00949 µM): 22.8%
- viability, T/C (second compound 10 µM, first compound 0.03 µM): 22.5%
- viability, T/C (second compound 10 µM, first compound 0.0949 µM): 19.6%
- viability, T/C (second compound 10 µM, first compound 0.3 µM): 20.4%

SMILES: Cn1ncnc1C1c2n[nH]c(=O)c3cc(F)cc(c23)NC1c1ccc(F)cc1 (configuration not stated)
- viability, T/C (compound 0.000316 µM): 103% and 92% and 97.7%
- viability, T/C (compound 0.001 µM): 100% and 90.9% and 98.2%
- viability, T/C (compound 0.00316 µM): 109% and 95.2% and 113%
- viability, T/C (compound 0.01 µM): 101% and 102% and 111%
- viability, T/C (compound 0.0316 µM): 102% and 100% and 97.5%
- viability, T/C (compound 0.1 µM): 104% and 86.2% and 91%
- IC50 (curve of compound): > 0.1 µM
